Turning to `COc1ccc(-c2ccc(-c3ccc(C(=O)O)cc3)cc2-c2ccc3c(c2)C(C)(C)CCC3(C)C)cc1`, the melting point (commonly the temperature, or range, at which the solid turns liquid) is 112 to 115 °C.
To `Cc1nc2ccccn2c1C1=NNC(=O)CO1` belongs 278 to 280 °C.
To `C[C@H](NC(=O)c1ccccc1)C(=O)N[C@@H](C)C(=O)Nc1ccccc1` belongs 245 to 248 °C; to `N/C(=C1/Sc2ccccc2C1=O)c1ccccc1[N+](=O)[O-]`, 185 to 186 °C; to `COCCOCCOCCC1(CCOCCOCCOC)c2cc(C#Cc3ccc(C=O)s3)ccc2-c2ccc(C#Cc3ccc(C=O)s3)cc21`, 84 °C.
With `CC(C)C(=O)N[C@@H](CSC(=O)c1ccccc1)C(=O)NCCSC(=O)c1ccccc1` the figure was 154 to 156 °C.
In turn, `O=C(Nc1cc(S(=O)(=O)NCCO)sc1Cl)c1cnn2c(C(F)(F)F)cc(-c3ccc(C(F)(F)F)cc3)nc12` came in with a melting point of 191 °C.
`CSc1nc(=O)n(Cc2ccccc2)c2ncn(COCc3ccccc3)c12` returned a melting point of 194 to 195 °C.
To `CCNc1nc(C)c(C(=O)c2ccc(Cl)c([N+](=O)[O-])c2)s1` belongs 195 °C.
In turn, `CCOC(=O)C(C)(C)n1c(=O)[nH]c2ccc([N+](=O)[O-])cc2c1=O` returned a melting point of 184 to 185 °C.
`CSc1ccc(-c2cc(-c3nc4ccccc4c(=O)n3-c3cccc(C)c3)sc2N2CCOCC2)cc1` had a melting point of 220 to 221 °C.
With `CCc1cc(Nc2nc(Nc3cc(CC)n[nH]3)c3ccccc3n2)[nH]n1` the figure was 248 to 252 °C.
Compound `Cc1cnc(C(=O)O)cc1C(c1cc(F)ccc1F)S(=O)(=O)c1ccc(Cl)cc1` (configuration not stated) came in with a melting point of 105 to 107 °C.
To `CN1CCC(C(=O)Nc2ccc(CN(C)C3CCOCC3)cc2)=Cc2cc(-c3ccc(N4CCCCC4)cc3)ccc21` belongs 202 to 204 °C; to `Cn1nc2ccccc2c1C(=O)NCC1CCN(CCc2ccc(F)cc2F)CC1`, 122 to 126 °C; to `NC1CC2=CNC=C3C=COCC1=C32` (configuration not stated), 202 to 203 °C.
To `OCc1ccc(-c2ccc(-c3cn([C@H]4CN5CCC4CC5)nn3)o2)cc1` belongs 209 °C.
Compound `C[C@H](Nc1nc(C(N)=O)nc(Cl)c1-c1c(F)cc(F)cc1F)C(F)(F)F` yielded a melting point of 157 to 162 °C.
To `O=c1[nH]c2c(Cl)ccc(Cl)c2c(=O)n1CCCN1CC=C(c2ccc(Cl)cc2)CC1` belongs 207 to 209 °C.
With `CCCCCCCCCCCCCCCc1cc(=O)c2c(O)cc(O)cc2o1` the figure was 108 °C; with `Cn1cc(C2=C(c3cn(CCCBr)c4ccccc34)C(=O)OC2=O)c2ccccc21`, 168 to 170 °C; with `CCOC(=O)c1c(Cl)nc2ccccc2c1-c1ccc(F)cc1`, 113 to 114 °C.
`CC(=O)Nc1cc2c(cc1Oc1ccc(F)cc1F)C(=O)CC2c1ccccc1` (configuration not stated) gave a melting point of 163 °C.
To `COn1c(C(F)(F)F)nc2ncc(Cl)cc21` belongs 91 to 92 °C; to `Cc1cc(-c2nc(COc3ccc(CCCn4ccnc4)cc3)co2)sc1Br`, 92 to 93 °C; to `CCc1cccc(C)c1S(=O)(=O)c1nn(C(=O)N(CC)CC)cc1Cl`, 68 to 72 °C.
With `Cc1c(C)c2ccc(OCCCN3CCC(=NO)CC3)cc2oc1=O` the figure was 198 to 200 °C; with `CCNC(=O)c1ccccc1Nc1nc(Nc2cc3c(cc2OC)CCN(CC(=O)N(C)C)CC3)ncc1Cl`, 99 to 111 °C.
To `Cc1cc2c(cc1O)C(C)(C)CC1(CC(C)(C)c3cc(OCCO)c(C)cc3O1)O2` (configuration not stated) belongs 186 to 188 °C; to `O=C(O)CNC[C@H]1O[C@H](c2ccccc2Cl)c2cc(Cl)ccc2N(Cc2ccccc2)C1=O` (relative stereo), 224 to 226 °C; to `CC(C)(C)OC(=O)NCC(=O)N1[C@@H](C(=O)OC(C)(C)C)C[C@H](S(=O)(=O)c2ccccc2)[C@H]1c1ccccc1F` (racemic), 134 °C.
Turning to `COc1cccc(-c2ccc(C(=O)N(Cc3cccc(O)c3)C3CC3)s2)c1F`, the melting point turned out to be 150 °C.
